Measurements: article PMC2782674 (Biochemistry, 2009)
“Also recorded” adds a separate entry of the source. Where two headings read alike, the source gives them in different places. Square brackets hold non-standard residues; d marks the D form. Peptide text beside a SMILES is read from it. Orn(N5-OH,N5-Ac) = CC(=O)N(O)CCC[C@H](N)C(=O)O

What was measured:
B. cereus ATCC 14579 [1] = type: cell-based, Bacillus cereus
YxeB (Bc_0383) = target: T1, YxeB (Bc_0383) (Bacillus cereus, UniProt Q81IK3); type: binding, B. cereus ATCC 14579; conditions: for Kd: pH 7
T1 sequence (Q81IK3 20-306): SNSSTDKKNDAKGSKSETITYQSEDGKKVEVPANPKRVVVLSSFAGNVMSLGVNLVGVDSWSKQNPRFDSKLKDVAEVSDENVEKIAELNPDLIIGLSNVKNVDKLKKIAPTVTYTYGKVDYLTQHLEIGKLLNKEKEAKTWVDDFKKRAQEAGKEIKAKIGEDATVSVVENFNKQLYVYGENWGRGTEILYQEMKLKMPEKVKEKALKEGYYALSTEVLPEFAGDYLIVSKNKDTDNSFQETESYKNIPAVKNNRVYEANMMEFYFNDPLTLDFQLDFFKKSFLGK

FeuA (Bc_3738) = target: T2, FeuA (Bc_3738) (Bacillus cereus, UniProt Q81A53); assay: biochemical; type: binding, B. cereus ATCC 14579
T2 sequence (Q81A53 22-321): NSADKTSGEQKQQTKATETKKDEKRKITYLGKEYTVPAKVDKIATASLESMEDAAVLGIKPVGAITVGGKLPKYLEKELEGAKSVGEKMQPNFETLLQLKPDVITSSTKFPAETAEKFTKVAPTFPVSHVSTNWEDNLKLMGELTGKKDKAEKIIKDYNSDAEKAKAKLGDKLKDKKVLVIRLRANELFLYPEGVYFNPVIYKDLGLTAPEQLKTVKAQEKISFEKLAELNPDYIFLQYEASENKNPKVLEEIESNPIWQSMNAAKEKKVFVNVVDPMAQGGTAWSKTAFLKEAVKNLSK

FatB (Bc_5106) [2] = target: T3, FatB (Bc_5106) (Bacillus cereus, UniProt Q815N5); type: binding, B. cereus ATCC 14579
T3 sequence (Q815N5 24-338): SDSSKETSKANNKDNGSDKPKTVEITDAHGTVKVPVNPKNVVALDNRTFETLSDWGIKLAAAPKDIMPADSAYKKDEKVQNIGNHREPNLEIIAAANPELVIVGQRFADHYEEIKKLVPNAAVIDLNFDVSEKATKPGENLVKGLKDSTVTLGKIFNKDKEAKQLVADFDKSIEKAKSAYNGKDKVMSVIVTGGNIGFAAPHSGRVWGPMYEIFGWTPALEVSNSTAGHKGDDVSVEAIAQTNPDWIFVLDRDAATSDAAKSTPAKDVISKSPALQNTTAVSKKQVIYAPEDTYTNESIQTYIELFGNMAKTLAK

B. cereus ATCC 14579 [3] = type: cell-based, Bacillus cereus; remark: listed apart in the source
FpuA (Bc_4528) [4] = target: T4, FpuA (Bc_4528) (Bacillus cereus, UniProt Q817L3); type: binding, B. cereus ATCC 14579
T4 sequence (Q817L3 19-324): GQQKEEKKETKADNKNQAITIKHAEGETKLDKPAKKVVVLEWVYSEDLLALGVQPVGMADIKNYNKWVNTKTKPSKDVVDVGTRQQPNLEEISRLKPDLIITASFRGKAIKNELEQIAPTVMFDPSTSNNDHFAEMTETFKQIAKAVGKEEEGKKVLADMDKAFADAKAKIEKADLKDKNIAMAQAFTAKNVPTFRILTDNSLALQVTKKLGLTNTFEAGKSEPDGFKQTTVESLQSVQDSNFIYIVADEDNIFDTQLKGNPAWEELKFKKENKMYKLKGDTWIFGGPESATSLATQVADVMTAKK

FpuA (Bc_4528) [5] = target: T4, FpuA (Bc_4528); conditions: pH 6.8
FatB (Bc_5106) [6] = target: T3, FatB (Bc_5106); conditions: pH 6.8

CC(=O)N(O)CCC[C@@H]1NC(=O)CNC(=O)CNC(=O)CNC(=O)[C@H](CCCN(O)C(C)=O)NC(=O)[C@H](CCCN(O)C(C)=O)NC1=O.[Fe+3] [FeFch] (cyclo(GGG[Orn(N5-OH,N5-Ac)][Orn(N5-OH,N5-Ac)][Orn(N5-OH,N5-Ac)]))
effect on uptake of ^55FeDFO (B. cereus ATCC 14579 [1]): inhibited
Kd (YxeB (Bc_0383)): 30 nM

C[C@H]1OC(=O)[C@@H](NC(=O)CNC(=O)c2cccc(O)c2O)[C@@H](C)OC(=O)[C@@H](NC(=O)CNC(=O)c2cccc(O)c2O)[C@@H](C)OC(=O)[C@H]1NC(=O)CNC(=O)c1cccc(O)c1O [BB, bacillibactin]
Kd (FeuA (Bc_3738); pH 7): 59 nM
ligand recognition by FatB (FatB (Bc_5106) [2]): binding incompatibility; also recorded: no affinity

CC(=O)N(O)CCCCCNC(=O)CCC(=O)N(O)CCCCCNC(=O)CCC(=O)N(O)CCCCCN [DFO, desferrioxamine B]
change of YxeB fluorescence on binding (YxeB (Bc_0383)): increase of SBP fluorescence

O=C(O)c1ccc(O)c(O)c1 [3,4-DHB, 3,4-dihydroxybenzoic acid]
Km (B. cereus ATCC 14579 [3]): 0.4 ± 0.1 µM
vmax (B. cereus ATCC 14579 [3]): 2.3 ± 0.1 pmol Fe mL^-1 min^-1
effect on uptake of radioactive ferric PB (B. cereus ATCC 14579 [1]): inhibited
effect on uptake of radioactive ferric PB^ν (B. cereus ATCC 14579 [1]): inhibited
ligand recognition by FpuA (FpuA (Bc_4528) [4]): not specifically quenched
noncovalent complex with FpuA by ESI-MS (Molecular weight Measured) (FpuA (Bc_4528) [5]): not observed

O=C(N[C@H]1COC(=O)[C@@H](NC(=O)c2cccc(O)c2O)COC(=O)[C@@H](NC(=O)c2cccc(O)c2O)COC1=O)c1cccc(O)c1O [Ent, enterobactin]
Kd (FeuA (Bc_3738)): 36 nM

CC(=O)N([O-])CCC[C@@H]1NC(=O)CNC(=O)CNC(=O)CNC(=O)[C@H](CCCN([O-])C(C)=O)NC(=O)[C@H](CCCN([O-])C(C)=O)NC1=O.[Fe+3] [Fch, ferrichrome] (cyclo(GGG[Orn(N5-OH,N5-Ac)][Orn(N5-OH,N5-Ac)][Orn(N5-OH,N5-Ac)]))
binding of the aposiderophore to FpuA (FpuA (Bc_4528) [4]): did not bind
unspecific protein emission quenching of FpuA (FpuA (Bc_4528) [4]): 10-20%
change of YxeB fluorescence on binding (YxeB (Bc_0383)): increase of SBP fluorescence
noncovalent complex with FpuA by ESI-MS (Molecular weight Measured) (FpuA (Bc_4528) [5]): no protein-ligand complexes were detected

O=C(CC(O)(CC(=O)NCCCCNCCCNC(=O)c1ccc(O)c(O)c1)C(=O)O)NCCCCNCCCNC(=O)c1ccc(O)c(O)c1 [PB, petrobactin]
effect on incorporation of radioactive ferric Ent (B. cereus ATCC 14579 [1]): only slightly affected
effect on uptake of radioactive ferric 3,4-DHB (B. cereus ATCC 14579 [1]): inhibited
effect on uptake of radioactive ferric PB (B. cereus ATCC 14579 [1]): inhibited
effect on uptake of radioactive ferric PB^ν (B. cereus ATCC 14579 [1]): inhibited
Kd (FpuA (Bc_4528) [4]; pH 7): 23 nM
noncovalent complex with FatB by ESI-MS (Molecular weight Measured) (FatB (Bc_5106) [6]): not observed
noncovalent complex with FpuA by ESI-MS (Molecular weight Measured) (FpuA (Bc_4528) [5]): not observed

FeEnt
Kd (FeuA (Bc_3738); pH 7): 12 nM

CC(=O)N(O)CCCNC(=O)CC(O)(CC(=O)NCCCN(O)C(C)=O)C(=O)O [Sch, schizokinen]
ligand recognition by FpuA (FpuA (Bc_4528) [4]): binding incompatibility

ferric citrate
ligand recognition by FatB (FatB (Bc_5106) [2]): no recognition
ligand recognition by FpuA (FpuA (Bc_4528) [4]): no recognition
noncovalent complex with FatB by ESI-MS (Molecular weight Measured) (FatB (Bc_5106) [6]): no protein-ligand complexes were detected
noncovalent complex with FpuA by ESI-MS (Molecular weight Measured) (FpuA (Bc_4528) [5]): no protein-ligand complexes were detected

CC(=O)N(O)CCCCCNC(=O)CCC(=O)N(O)CCCCCNC(=O)CCC(=O)N(O)CCCCCN.[Fe+3] [FeDFO]
effect on transport of ^55FeFch (B. cereus ATCC 14579 [1]): inhibited
Kd (YxeB (Bc_0383)): 18 nM
